# In patent US8461336B2, “Boron-containing small molecules” (Anacor Pharmaceuticals, Inc., priority 2008, dated 2013):
# Counter-ions that a name gives are not always drawn.
# Tests used:
# [1] = target: T1, ROCK1 (Homo sapiens, UniProt Q13464); assay: Kinase assay ROCK1 ([gamma-33P]ATP, S6 kinase peptide substrate); type: biochemical; conditions: 20 nM recombinant human ROCK1 catalytic domain, room temperature
# T1 construct: Catalytic Domain (amino acids 1-535); GST; purchased Reaction Biology Corp., Malvern, Pa; host or cells: insect cells
# Experimental: (§1) The kinase assays were performed at room temperature using 20 nM ROCK1 or ROCK2 enzyme and 20 uM peptide substrate, [gamma-^33P]ATP, and drug concentration were varied. The ROCK1 enzyme is recombinant human protein, Catalytic Domain (amino acids 1-535) (Reaction Biology Corp., Malvern, Pa.), GST-tagged, expressed in insect cells. MW=[…]. The ROCK2 enzyme is recombinant human protein (amino acids 11-552), N-terminal histidine-tagged, expressed in insect cells, MW=63.3 kDa (Reaction Biology Corp., Malvern, Pa.). The substrate was a peptide derived from S6 kinase peptide for both ROCK1 & 2 assays; [[…]], Mw=3630 Da (Reaction Biology Corp., Malvern, Pa.). The reaction buffer contained 20 mM HEPES-HCl, pH 7.5, 10 mM MgCl2, 1 mM EGTA, 0.02% Brij35, 0.1 mM Na3VO4, 0.02 mg/ml BSA, 2 mM DTT, and 1% DMSO. Enzyme/substrate/drug mixture were added and incubated for 20 min to ensure compound was equilibrated and bound to the enzyme. Then concentrations of ATP were added to initiate the reaction. The activity was monitored by filter plate capture of the radioactive peptide using ion exchange filtration (P81, Whatmann) and washed extensively. The reactions were monitored every 5-15 min to obtain progress curve with time course. At each time point, radioisotope signal (“P) was converted into “uM phosphate transferred to substrate”, and was plotted against time. The initial linear slope of progress curve was obtained by linear regression. The slopes (or velocity; uM/min) were then plotted against ATP concentrations for Michaelis-Menten plot, and subsequent Lineweaver-Burk plot (double-reciprocal plot) and secondary plot, using GraphPad Prism software.
# [2] = target: T2, ROCK2 (Homo sapiens, UniProt O75116); assay: Kinase assay ROCK2 ([gamma-33P]ATP, S6 kinase peptide substrate); type: biochemical; conditions: 20 nM recombinant human ROCK2, room temperature
# T2 construct: recombinant human protein (amino acids 11-552); His (N); purchased Reaction Biology Corp., Malvern, Pa; host or cells: insect cells
# Experimental: as §1
# [3] = test system: TNF-α; assay: Cytokine assay, LPS-induced TNF-α in human PBMC; type: cell-based; conditions: 1 μg/mL LPS, supernatant at 24 hours
# Experimental: The ability of the compounds described herein to inhibit pro-inflammatory cytokines or phosphodiesterases were tested.
# Frozen human peripheral blood mononucleocytes (PBMC) were thawed and centrifuged. Cryopreservation media was aspirated off of the cell pellet, and the cells were resuspended in fresh culture media (CM) comprising RPMI 1640 and 10% FBS in 96 well plates. Test article was dissolved in DMSO to form a 10 mM sample (DMSO, 100%). The 10 mM samples were diluted to 100 μM in CM (DMSO, 1%), then further diluted to 10, 1, 0.1, 0.01 μM in 200 μL of CM (n=3). […] IL-23 was assayed using a commercial ELISA kit (R&D Systems).
# [4] = target: K-ATP channel; conditions: example given in the text for K-ATP channel modulation; cited from earlier work
# T2 sequence (O75116 11-552): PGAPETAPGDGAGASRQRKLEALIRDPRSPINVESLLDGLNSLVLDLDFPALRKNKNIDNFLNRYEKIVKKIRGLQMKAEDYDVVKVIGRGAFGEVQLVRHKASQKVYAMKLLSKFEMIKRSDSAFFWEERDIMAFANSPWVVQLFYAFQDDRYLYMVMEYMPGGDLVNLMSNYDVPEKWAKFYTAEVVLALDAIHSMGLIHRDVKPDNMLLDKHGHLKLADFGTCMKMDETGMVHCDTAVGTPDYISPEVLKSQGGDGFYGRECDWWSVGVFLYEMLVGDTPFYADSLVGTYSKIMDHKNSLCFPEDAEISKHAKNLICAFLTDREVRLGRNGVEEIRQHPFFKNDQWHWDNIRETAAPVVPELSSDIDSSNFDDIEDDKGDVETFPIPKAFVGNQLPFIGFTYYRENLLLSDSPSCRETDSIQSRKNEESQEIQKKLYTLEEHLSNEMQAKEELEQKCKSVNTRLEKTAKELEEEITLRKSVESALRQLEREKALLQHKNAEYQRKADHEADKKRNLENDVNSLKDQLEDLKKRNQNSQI
# T1 sequence (Q13464 1-535): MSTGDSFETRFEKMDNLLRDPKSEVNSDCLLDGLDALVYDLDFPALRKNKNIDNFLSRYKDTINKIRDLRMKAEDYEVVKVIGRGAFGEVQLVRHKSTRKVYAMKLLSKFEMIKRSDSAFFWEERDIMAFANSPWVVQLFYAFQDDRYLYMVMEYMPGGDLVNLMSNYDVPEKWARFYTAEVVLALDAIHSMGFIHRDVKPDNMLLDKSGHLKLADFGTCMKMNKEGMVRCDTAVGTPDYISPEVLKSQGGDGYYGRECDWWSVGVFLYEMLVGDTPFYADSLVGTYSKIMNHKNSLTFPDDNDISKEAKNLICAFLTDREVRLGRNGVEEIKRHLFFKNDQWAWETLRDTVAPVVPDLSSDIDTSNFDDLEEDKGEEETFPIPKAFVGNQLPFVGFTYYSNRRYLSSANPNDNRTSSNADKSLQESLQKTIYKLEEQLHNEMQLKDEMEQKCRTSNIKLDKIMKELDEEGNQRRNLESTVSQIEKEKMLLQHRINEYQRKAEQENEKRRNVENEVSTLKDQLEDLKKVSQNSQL
SMILES,IC50 [1],IC50 [2],IC50 [3],melting point,pKi [4]
"NCc1ccc(Oc2ccc3c(c2)B(O)OC3)cc1 [T, (4-(1-hydroxy-1,3-dihydrobenzo[c][1,2]oxaborol-6-yloxy)phenyl)methanaminium chloride]",8.1 µM,3.1 µM,,,
"NCc1cccc(Oc2ccc3c(c2)B(O)OC3)c1 [U, (3-(1-hydroxy-1,3-dihydrobenzo[c][1,2]oxaborol-6-yloxy)phenyl)methanaminium chloride]",69.5 µM,40.2 µM,,,
NCc1ccc(Oc2ccc3c(c2)B(O)OC3)c(F)c1 [W],2.44 µM,0.86 µM,0.019 µM,,
"NCc1ccc(Oc2ccc3c(c2)COB3O)cc1 [V, (4-(1-hydroxy-1,3-dihydrobenzo[c][1,2]oxaborol-5-yloxy)phenyl)methanaminium chloride]",25.1 µM,10.1 µM,,,
"NCc1ccc(Oc2ccc3c(c2)B(O)OC3)cc1 (as salt: chloride) [(4-(1-hydroxy-1,3-dihydrobenzo[c][1,2]oxaborol-6-yloxy)phenyl)methanaminium chloride]",,,,> 230 °C,
CC1=NS(=O)(=O)c2cc(Cl)ccc2N1 [diazoxide],,,,,3.8
NCc1ccc(Oc2ccc3c(c2)B(O)OC3)c(Cl)c1 [X],4.75 µM,2.11 µM,,,
"N#Cc1ccc(Oc2ccc3c(c2)COB3O)nc1OC1CCCC1 [Z, 2-Cyclopentyloxy-6-(1-hydroxy-1,3-dihydro-benzo[c][1,2]oxaborol-5-yloxy)-nicotinonitrile]",18.1 µM,9.09 µM,,,
